Reference: patent US20100080790A1, “STERILIZATION USING HIGH-PRESSURE CARBON DIOXIDE” (University of South Carolina, priority 2005, published 2010)
Several values for one entry are separate records, joined by “and”; a condition that tells them apart may be missing. Equal entries are not always repeated. Entries after “also recorded” stand apart in the source; their conditions may differ. Where two headings read alike, the source gives them in different places.

How the values were obtained:
[1] = tested on: B. pumilus ATCC 27142 spores; experiment: Log reduction of B. pumilus spores on spore strips treated with high-pressure/supercritical CO2 with or without additives, colony counting; format: cell-based
[2] = tested on: B. atrophaeus ATCC 9372 spores
[3] = tested on: B. anthracis ΔSterne-1 spores
[4] = tested on: Vegetative G. stearothermophilus cells; settings: 1.5-hour exposure, 28 bar, 25 °C; cited from earlier work
Lactobacillus plantarum = settings: high-pressure CO2 treatment, suspension in distilled water at pH 6.0; cited from earlier work
[5] = tested on: G. stearothermophilus spores; settings: cited from earlier work
[6] = additive with CO2, conditions of Table 2
[7] = additive with CO2, 40 °C, 276 bar, 4 hr

O [BULK WATER, water]
effectiveness of additive (in words) [1]: neither bulk water, nor ethanol, nor isopropanol were effective additives | effectiveness of additive in deactivating B. pumilus spores (in words) [1]: Neither bulk water, 5 μL of 70% ethanol, nor 5 μL of 70% isopropanol resulted in the required log reduction

OO [30% H2O2, hydrogen peroxide]
LOG REDUCTION [1]: 4.47 ± 0.64 log and 4.60 ± 0.02 log and 6.28 ± 0.46 log and 4.45 ± 0.31 log | deactivation in replicate experiments (in words) [1]: complete deactivation in two of the three replicate experiments | effectiveness of additive in deactivating B. pumilus spores (in words) [1]: highly effective; also recorded: the most effective additive among the additives examined | Log reduction [2]: 6.25 | Log reduction [3]: 5.74

CC(C)O [70% ISOPROPANOL, isopropanol]
effectiveness of additive in deactivating B. pumilus spores (in words) [1, 6]: Neither bulk water, 5 μL of 70% ethanol, nor 5 μL of 70% isopropanol resulted in the required log reduction | LOG REDUCTION [1, 7]: 0.17 ± 0.06 log | effectiveness of additive (in words) ([1]; dense-phase CO2, at 40 °C): neither bulk water, nor ethanol, nor isopropanol were effective additives

CCO [70% ETHANOL, ethanol]
effectiveness of additive in deactivating B. pumilus spores (in words) [1, 6]: Neither bulk water, 5 μL of 70% ethanol, nor 5 μL of 70% isopropanol resulted in the required log reduction | LOG REDUCTION [1, 7]: 0.27 ± 0.16 log | effectiveness of additive (in words) ([1]; dense-phase CO2, at 40 °C): neither bulk water, nor ethanol, nor isopropanol were effective additives

O=C=O [CO2, carbon dioxide]
log reduction [1]: 3.90 log | LOG REDUCTION ([1]; wetted spore strips with CO2, 4 hr, 103 bar, 60 °C): 1.91 ± 0.23 log | LOG REDUCTION ([1]; wetted spore strips with CO2, 4 hr, 276 bar, 50 °C): 0.58 ± 0.04 log | LOG REDUCTION ([1]; wetted spore strips with CO2, 4 hr, 276 bar, 60 °C): 3.06 ± 0.17 log | LOG REDUCTION ([1]; wetted spore strips with CO2, 4 hr, 276 bar, 80 °C): 3.02 ± 0.07 log | log reduction of vegetative cells [4]: more than 6 log | log reduction (Lactobacillus plantarum): more than 7 log | spores remained viable [5]: 80%
